In paper PMC9785850, “Encorafenib Acts as a Dual-Activity Chemosensitizer through Its Inhibitory Effect on ABCC1 Transporter In Vitro and Ex Vivo” (Pharmaceutics, 2022):

Columns and labels:
ABCC1 = biological target: T1, ABCC1 (Homo sapiens, UniProt P33527); experiment: daunorubicin accumulation assay in MDCKII-ABCC1 cells, flow cytometry; assay type: cell-based
T1 construct: human ABCC1 overexpressed in MDCKII cells

P-glycoprotein (ABCB1) = biological target: T2, P-glycoprotein (ABCB1) (Homo sapiens, UniProt P08183); experiment: daunorubicin accumulation assay in MDCKII-ABCB1 cells, flow cytometry; assay type: cell-based
T2 construct: human ABCB1 overexpressed in MDCKII cells
T2 sequence (P08183 whole entry): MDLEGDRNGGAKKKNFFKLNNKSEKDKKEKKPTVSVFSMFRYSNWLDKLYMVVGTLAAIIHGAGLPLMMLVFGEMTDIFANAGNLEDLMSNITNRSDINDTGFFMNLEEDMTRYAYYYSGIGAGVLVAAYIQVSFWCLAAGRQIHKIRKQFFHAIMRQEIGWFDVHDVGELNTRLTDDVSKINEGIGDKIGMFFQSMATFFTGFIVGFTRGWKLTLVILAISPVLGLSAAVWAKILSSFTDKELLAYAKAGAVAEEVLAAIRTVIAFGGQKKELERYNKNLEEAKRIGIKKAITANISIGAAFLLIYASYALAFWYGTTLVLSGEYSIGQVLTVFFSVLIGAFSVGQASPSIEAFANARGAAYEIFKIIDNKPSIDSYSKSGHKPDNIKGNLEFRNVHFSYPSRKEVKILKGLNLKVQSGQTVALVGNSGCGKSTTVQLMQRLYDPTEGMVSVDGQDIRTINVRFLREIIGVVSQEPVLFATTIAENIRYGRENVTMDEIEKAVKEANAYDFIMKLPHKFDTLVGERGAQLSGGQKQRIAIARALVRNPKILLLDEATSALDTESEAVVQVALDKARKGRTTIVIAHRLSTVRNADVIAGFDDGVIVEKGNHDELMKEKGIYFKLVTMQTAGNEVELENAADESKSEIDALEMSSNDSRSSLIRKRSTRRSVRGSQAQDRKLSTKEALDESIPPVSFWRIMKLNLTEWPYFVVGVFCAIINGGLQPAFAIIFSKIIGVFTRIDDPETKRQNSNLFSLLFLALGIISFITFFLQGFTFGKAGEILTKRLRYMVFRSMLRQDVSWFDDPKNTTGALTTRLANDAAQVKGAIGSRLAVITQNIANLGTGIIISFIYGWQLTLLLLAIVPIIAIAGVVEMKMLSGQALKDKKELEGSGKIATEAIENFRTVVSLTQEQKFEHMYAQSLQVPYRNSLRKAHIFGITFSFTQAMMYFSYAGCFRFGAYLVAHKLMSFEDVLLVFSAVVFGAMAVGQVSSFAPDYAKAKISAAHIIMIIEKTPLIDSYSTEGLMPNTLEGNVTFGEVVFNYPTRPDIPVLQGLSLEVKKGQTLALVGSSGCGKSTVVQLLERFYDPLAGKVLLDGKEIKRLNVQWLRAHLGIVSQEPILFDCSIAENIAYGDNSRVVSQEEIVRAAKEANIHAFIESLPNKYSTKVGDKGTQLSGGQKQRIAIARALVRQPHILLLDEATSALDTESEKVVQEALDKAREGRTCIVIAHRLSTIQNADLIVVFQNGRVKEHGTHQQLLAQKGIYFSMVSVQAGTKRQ

T1 sequence (P33527 whole entry): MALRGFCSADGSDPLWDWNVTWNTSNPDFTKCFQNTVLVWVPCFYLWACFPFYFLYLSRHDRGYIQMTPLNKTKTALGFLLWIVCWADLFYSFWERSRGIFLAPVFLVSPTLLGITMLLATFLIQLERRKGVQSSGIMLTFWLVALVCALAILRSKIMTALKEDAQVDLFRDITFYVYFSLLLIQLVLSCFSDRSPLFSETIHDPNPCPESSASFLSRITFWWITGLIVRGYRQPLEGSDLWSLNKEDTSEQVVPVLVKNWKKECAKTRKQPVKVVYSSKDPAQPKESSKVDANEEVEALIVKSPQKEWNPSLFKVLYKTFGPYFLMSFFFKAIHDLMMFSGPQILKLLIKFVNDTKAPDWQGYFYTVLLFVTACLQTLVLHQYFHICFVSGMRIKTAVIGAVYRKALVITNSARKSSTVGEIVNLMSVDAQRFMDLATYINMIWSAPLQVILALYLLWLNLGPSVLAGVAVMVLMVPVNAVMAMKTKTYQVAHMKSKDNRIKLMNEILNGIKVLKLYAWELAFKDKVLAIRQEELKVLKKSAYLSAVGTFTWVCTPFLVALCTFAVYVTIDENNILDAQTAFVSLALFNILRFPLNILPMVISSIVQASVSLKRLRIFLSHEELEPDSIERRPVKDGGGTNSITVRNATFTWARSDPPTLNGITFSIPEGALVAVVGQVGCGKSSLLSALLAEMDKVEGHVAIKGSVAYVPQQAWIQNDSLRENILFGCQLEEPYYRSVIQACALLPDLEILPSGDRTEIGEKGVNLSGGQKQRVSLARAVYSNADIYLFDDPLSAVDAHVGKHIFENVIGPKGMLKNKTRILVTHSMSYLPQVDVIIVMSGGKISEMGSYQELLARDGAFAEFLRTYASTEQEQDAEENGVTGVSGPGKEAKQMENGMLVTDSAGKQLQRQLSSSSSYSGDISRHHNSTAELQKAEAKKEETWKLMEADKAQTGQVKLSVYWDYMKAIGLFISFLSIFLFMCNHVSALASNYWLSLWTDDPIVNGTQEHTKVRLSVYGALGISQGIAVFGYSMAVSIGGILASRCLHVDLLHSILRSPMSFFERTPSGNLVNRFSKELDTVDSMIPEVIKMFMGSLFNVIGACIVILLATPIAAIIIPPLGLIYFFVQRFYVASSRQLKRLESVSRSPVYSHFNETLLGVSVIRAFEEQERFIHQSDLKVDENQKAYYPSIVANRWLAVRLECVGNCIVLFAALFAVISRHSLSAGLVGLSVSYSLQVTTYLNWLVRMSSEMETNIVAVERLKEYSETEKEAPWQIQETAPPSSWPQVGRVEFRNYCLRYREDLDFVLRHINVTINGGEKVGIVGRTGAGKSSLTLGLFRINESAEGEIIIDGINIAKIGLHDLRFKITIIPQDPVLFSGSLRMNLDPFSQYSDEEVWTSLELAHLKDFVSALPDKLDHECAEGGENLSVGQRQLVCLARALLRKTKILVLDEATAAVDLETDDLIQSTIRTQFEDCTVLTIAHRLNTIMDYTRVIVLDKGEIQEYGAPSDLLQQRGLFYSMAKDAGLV

In the case of `COC(=O)N[C@@H](C)CNc1nccc(-c2cn(C(C)C)nc2-c2cc(Cl)cc(NS(C)(=O)=O)c2F)n1` [encorafenib], the IC50 (ABCC1) is reported as 8.63 µM and the IC50 (P-glycoprotein (ABCB1)) is reported as 25.1 µM.
